biological target: Protein farnesyltransferase (Homo sapiens, UniProt P49354+P49356); assay: FPT inhibitory activity was determined by the ability to inhibit the transfer of [3H]farnesyl from farnesyl pyrophosphate to H-ras-CLVS; type: protein-complex assay

IC50	SMILES
0.018 µM	N#CN=C(NCC1CCNCC1)N1CCC(=C2c3ccc(Cl)cc3CCc3cc(Br)cnc32)CC1
0.032 µM	N#CN=C(Nc1ccc(C#N)cc1)N1CCC(=C2c3ccc(Cl)cc3CCc3cc(Br)cnc32)CC1
2.6 µM	N#CN=C(N)N1CCC(=C2c3ccc(Cl)cc3CCc3cc(Br)cnc32)CC1
0.124 µM	CC(C)NC(=NC#N)N1CCC(=C2c3ccc(Cl)cc3CCc3cc(Br)cnc32)CC1
15.8 µM	O=C(CN1CCC(=C2c3ccc(Cl)cc3CCc3cccnc32)CC1)c1ccccc1
0.0082 µM	O=C(Cc1ccc[n+]([O-])c1)N1CCC([C@H]2c3ncc(Br)cc3CCc3cc(Cl)cc(Br)c32)CC1
0.042 µM	CCOC(=O)N1CCC(NC(=NC#N)N2CCC(=C3c4ccc(Cl)cc4CCc4cc(Br)cnc43)CC2)CC1
0.015 µM	N#CN=C(Nc1ccc2c(c1)COCO2)N1CCC(=C2c3ccc(Cl)cc3CCc3cc(Br)cnc32)CC1
0.15 µM	CC(C)c1ccc(N/C(=N\C#N)N2CCC(=C3c4ccc(Cl)cc4CCc4cc(Br)cnc43)CC2)cc1
0.199 µM	N#CN=C(NCC1CCCCC1)N1CCC(=C2c3ccc(Cl)cc3CCc3cc(Br)cnc32)CC1
0.155 µM	N#CN=C(NC1CC1)N1CCC(=C2c3ccc(Cl)cc3CCc3cc(Br)cnc32)CC1
0.015 µM	N#CN=C(NCc1cccnc1)N1CCC(=C2c3ccc(Cl)cc3CCc3cc(Br)cnc32)CC1
0.084 µM	N#CN/C(=N/CCOCCO)N1CCC(=C2c3ccc(Cl)cc3CCc3cc(Br)cnc32)CC1
0.062 µM	N#C/N=C(\Nc1ccc([N+](=O)[O-])cc1)N1CCC(=C2c3ccc(Cl)cc3CCc3cc(Br)cnc32)CC1
0.23 µM	N#CN=C(NCc1ccccc1)N1CCC(=C2c3ccc(Cl)cc3CCc3cc(Br)cnc32)CC1
0.029 µM	N#CN/C(=N/Cc1ccccn1)N1CCC(=C2c3ccc(Cl)cc3CCc3cc(Br)cnc32)CC1
0.03 µM	N#CN/C(=N/CCc1ccncc1)N1CCC(=C2c3ccc(Cl)cc3CCc3cc(Br)cnc32)CC1
0.116 µM	N#CN=C(Nc1ccccc1)N1CCC(=C2c3ccc(Cl)cc3CCc3cc(Br)cnc32)CC1
0.32 µM	N#C/N=C(\Nc1ccc(OC(F)(F)F)cc1)N1CCC(=C2c3ccc(Cl)cc3CCc3cc(Br)cnc32)CC1

IC50	SMILES
0.31 µM	COc1ccc(C/N=C(/NC#N)N2CCC(=C3c4ccc(Cl)cc4CCc4cc(Br)cnc43)CC2)cc1
0.038 µM	N#CN=C(Nc1ccc2c(c1)OCO2)N1CCC(=C2c3ccc(Cl)cc3CCc3cc(Br)cnc32)CC1
0.17 µM	N#CN/C(=N/CCO)N1CCC(=C2c3ccc(Cl)cc3CCc3cc(Br)cnc32)CC1
0.035 µM	N#CN/C(=N/CCCn1ccnc1)N1CCC(=C2c3ccc(Cl)cc3CCc3cc(Br)cnc32)CC1
0.038 µM	N#CN=C(Nc1ccc(F)cc1)N1CCC(=C2c3ccc(Cl)cc3CCc3cc(Br)cnc32)CC1
0.058 µM	N#CN=C(NCCc1cnc[nH]1)N1CCC(=C2c3ccc(Cl)cc3CCc3cc(Br)cnc32)CC1
0.24 µM	N#CN/C(=N/Cc1ccc2c(c1)OCO2)N1CCC(=C2c3ccc(Cl)cc3CCc3cc(Br)cnc32)CC1
0.105 µM	CCCCNC(=NC#N)N1CCC(=C2c3ccc(Cl)cc3CCc3cc(Br)cnc32)CC1
0.012 µM	N#CN=C(NCc1ccc[n+]([O-])c1)N1CCC(=C2c3ccc(Cl)cc3CCc3cc(Br)cnc32)CC1
0.0017 µM	N#CN/C(=N/Cc1ccc[n+]([O-])c1)N1CCC([C@H]2c3ncc(Br)cc3CCc3cc(Cl)cc(Br)c32)CC1
0.006 µM	N#CN/C(=N/Cc1cc[n+]([O-])cc1)N1CCC(=C2c3ccc(Cl)cc3CCc3cc(Br)cnc32)CC1
< 0.11 µM	N#CN/C(=N/c1ccncc1)N1CCC(=C2c3ccc(Cl)cc3CCc3cc(Br)cnc32)CC1
0.074 µM	CN(C)CCCC/N=C(/NC#N)N1CCC(=C2c3ccc(Cl)cc3CCc3cc(Br)cnc32)CC1
0.086 µM	N#CN/C(=N/c1ccccc1)N1CCC(=C2c3ccc(Cl)cc3CCc3cccnc32)CC1
0.082 µM	CS(=O)(=O)c1ccc(N/C(=N\C#N)N2CCC(=C3c4ccc(Cl)cc4CCc4cc(Br)cnc43)CC2)cc1
0.1 µM	CN(C)c1ccc(CNC(=NC#N)N2CCC(=C3c4ccc(Cl)cc4CCc4cc(Br)cnc43)CC2)cc1
0.006 µM	N#CN/C(=N/CC1CCN(C(N)=O)CC1)N1CCC(=C2c3ccc(Cl)cc3CCc3cc(Br)cnc32)CC1
0.02 µM	N#CN/C(=N/C1CCCCC1)N1CCC(=C2c3ccc(Cl)cc3CCc3cc(Br)cnc32)CC1

From ChEMBL document CHEMBL1135942, “Synthesis of 5,6-dihydro-11H-benzo[5,6]-cyclohepta[1,2-b]pyridin-11-ylidene)-1-piperidine-N-cyanoguanidine derivatives as inhibitors of ras farnesyl protein transferase” (Bioorg Med Chem Lett, 2002)
